TGI data for 13 compounds are collected here from PubChem BioAssay (NCI).

Experiment in all cases: growth of human tumour cells (NCI), 48 h
For experiment [1], the system named is 786-0 renal.
Experiment [2] relates to A549 NSCLC.
Experiment [3] has as its system COLO 205 colon.
The subject of experiment [4] is HT29 colon.
The test system of experiment [5] is MDA-N.
Experiment [6] deals with MOLT-4 leukemia.
In experiment [7] the test system is NCI-H23 lung.
The subject of experiment [8] is NCI-H460 lung.
The test system of experiment [9] is NCI-H522 lung.
Experiment [10] relates to OVCAR-8 ovarian.
In experiment [11] the test system is SNB-19 CNS.

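Test compounds were applied to cells in 96-well plates for 48 hours at 5 doses. The concentration for full growth arrest is given as TGI.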

As for `Cc1ccc(S(=O)(=O)Oc2nc3ccccc3nc2OS(=O)(=O)c2ccc(C)cc2)cc1`, the TGI in [1], in experiment [2], in experiment [3], in experiment [4], in experiment [5] and in experiment [6] was over 100 µM throughout. In addition, the TGI in experiment [7] was over 100 µM; in experiment [8] it was over 100 µM; in [9] it was 49.9 µM; in experiment [10], over 100 µM; in experiment [11], over 100 µM.

As for `CN(C)CCn1c(=O)c2ccc(NCCN3CCNCC3)c3c(=O)c4ccccc4n(c1=O)c23`, the TGI in experiment [1] came out at 14.1 µM; in [2], 15.9 µM; in experiment [3], 13 µM; in [4], 18.8 µM; in experiment [5], 18.9 µM; in [6] it was 0.147 µM. The TGI in experiment [7] worked out at 16.8 µM; in experiment [8], 12 µM; in experiment [9] it was 10 µM; in experiment [10], 31.4 µM; in [11] it was 23.9 µM.

As to `O=C1CSC(c2ccccc2[N+](=O)[O-])N1c1ccc(-c2ccc(-n3c(-c4ccccc4)nc4ccccc4c3=O)cc2)cc1` (configuration not stated), the TGI in [1], in experiment [2], in experiment [3], in experiment [4], in experiment [5] and in experiment [6] was over 100 µM each time. Also, the TGI in experiment [8], in experiment [9], in [10] and in experiment [11] was over 100 µM in each case.

Take `CCOc1ccc(N/C(=C(/C(Cl)=C(/Cl)N2CCCCC2)[N+](=O)[O-])n2nnc3ccccc32)cc1`: the TGI is 39.8 µM in experiment [1]; 62.9 µM in experiment [2]; 42.5 µM in [3]; 52.4 µM in experiment [5]; over 100 µM in experiment [6]; 29.7 µM in experiment [7]. The figures for the TGI in [8], in experiment [9] and in experiment [11] were 70.4 µM, 22 µM and 44 µM, respectively.

In the case of `COC1CN(C)C(=Nc2cccc3ccccc23)S1` (configuration not stated), the TGI in experiment [1], in experiment [2], in experiment [3], in [4], in [5] and in experiment [6] was over 10 µM each time. Further, the TGI in [7], in experiment [9], in [10] and in experiment [11] was over 10 µM in each case.

With `CC[C@@]1(C)CCC2c3ccc(O)cc3CC[C@H]2C1C` (some centres not stated), the TGI in experiment [1] worked out at 29.8 µM; in [2] it was 33.6 µM; in experiment [3], 35.1 µM; in [4], 34.1 µM; in experiment [5], 25.8 µM; in [6], 32.5 µM. In addition, the TGI was 36.2 µM in [7]; 40.6 µM in [8]; 36.1 µM in [9]; 33.8 µM in experiment [10]; 32.1 µM in experiment [11].

Consider `NCCCC[C@H](N)C(=O)Nc1ccc(-c2nc3ccccc3s2)cc1`, for which the TGI in [1] is 32.9 µM; in [2] it was over 100 µM; in [3] it was 33.6 µM; in [4] it was 30.1 µM; in experiment [5], 29 µM; in experiment [6] it was 31.2 µM. Also, the TGI turned out to be 67.7 µM in experiment [7]; 34.9 µM in [8]; 33.9 µM in [9]; 40.1 µM in [10]; 32.3 µM in experiment [11].

In the case of `CCC(=O)Nc1ccc(NC(C#N)c2cccc(Oc3ccccc3)c2)cc1` (configuration not stated), the TGI in experiment [1] was over 100 µM; in experiment [2] it was over 100 µM; in [3] it was over 100 µM; in [4], over 100 µM; in experiment [5], over 100 µM; in [6], 36 µM. The TGI in experiment [7] is over 100 µM; in experiment [9], over 100 µM; in [10], 73.4 µM; in experiment [11] it was over 100 µM.

For the compound `CN1C(=O)C2(C=CC(O)CC2)c2ccccc21` (configuration not stated), the TGI in [1], in experiment [2], in [3], in [4], in [5] and in experiment [6] was over 100 µM in each case. Moreover, the TGI in [7], in [8], in experiment [9], in [10] and in experiment [11] was over 100 µM in each case.

Turning to `C=CCN(C(=O)OC(C)(C)C)[C@H](C)C(=O)N[C@@H](C)C(=O)OC`, the TGI in [1], in experiment [2], in experiment [3], in [4], in experiment [5] and in [6] was over 100 µM in each case. Moreover, the TGI in experiment [7], in experiment [9], in experiment [10] and in experiment [11] was over 100 µM throughout.

Consider `COc1ccc(N2C(=O)C3c4[nH]c5ccc(Br)cc5c4C4CCC(C(C)(C)C)CC4C3C2=O)cc1` (configuration not stated), for which the TGI in experiment [1], in experiment [2], in [3], in experiment [4], in experiment [5] and in [6] was over 100 µM in each case. Further, the TGI in [7], in experiment [8], in experiment [9], in experiment [10] and in experiment [11] was over 100 µM each time.

On to `CC1SCc2nc3ccccc3n21` (configuration not stated), for which the TGI in experiment [1], in experiment [2], in experiment [3], in experiment [4], in experiment [5] and in [6] was over 100 µM in each case. In addition, the TGI in [7], in experiment [8], in experiment [9], in [10] and in experiment [11] was over 100 µM each time.

Turning to `CCOC(=O)C(Cc1ccc(OC(=O)c2ccc(OC)cc2)cc1)NC(=O)C(F)(F)F` (configuration not stated), the TGI in experiment [1], in experiment [2], in experiment [3], in experiment [4], in experiment [5] and in experiment [6] was over 100 µM in each case. In addition, the TGI in experiment [7], in experiment [8], in [9], in [10] and in [11] was over 100 µM throughout.
